In US12129246B1, “Hydroquinazoline derivatives for the treatment of a disease or disorder” (Novartis AG, priority 2023, dated 2024):
Like-named read-outs stand apart in the source and are kept apart here.

Columns and labels:
human NPR1 = target: T1, human NPR1 (Homo sapiens, UniProt P16066); test: Cellular cGMP production assay, human NPR1 expressing CHO-K1 cells (CisBio HTRF); assay type: cell-based; conditions: for AC50: cGMP production, 30 min at 37° C., 12-point dose-response from 30 μM; for Human NPR1 Amax (% of ANP): maximum cGMP production as percentage of the maximum cGMP produced with ANP
T1 construct: host or cells: CHO-K1
T1 sequence (P16066 33-1061): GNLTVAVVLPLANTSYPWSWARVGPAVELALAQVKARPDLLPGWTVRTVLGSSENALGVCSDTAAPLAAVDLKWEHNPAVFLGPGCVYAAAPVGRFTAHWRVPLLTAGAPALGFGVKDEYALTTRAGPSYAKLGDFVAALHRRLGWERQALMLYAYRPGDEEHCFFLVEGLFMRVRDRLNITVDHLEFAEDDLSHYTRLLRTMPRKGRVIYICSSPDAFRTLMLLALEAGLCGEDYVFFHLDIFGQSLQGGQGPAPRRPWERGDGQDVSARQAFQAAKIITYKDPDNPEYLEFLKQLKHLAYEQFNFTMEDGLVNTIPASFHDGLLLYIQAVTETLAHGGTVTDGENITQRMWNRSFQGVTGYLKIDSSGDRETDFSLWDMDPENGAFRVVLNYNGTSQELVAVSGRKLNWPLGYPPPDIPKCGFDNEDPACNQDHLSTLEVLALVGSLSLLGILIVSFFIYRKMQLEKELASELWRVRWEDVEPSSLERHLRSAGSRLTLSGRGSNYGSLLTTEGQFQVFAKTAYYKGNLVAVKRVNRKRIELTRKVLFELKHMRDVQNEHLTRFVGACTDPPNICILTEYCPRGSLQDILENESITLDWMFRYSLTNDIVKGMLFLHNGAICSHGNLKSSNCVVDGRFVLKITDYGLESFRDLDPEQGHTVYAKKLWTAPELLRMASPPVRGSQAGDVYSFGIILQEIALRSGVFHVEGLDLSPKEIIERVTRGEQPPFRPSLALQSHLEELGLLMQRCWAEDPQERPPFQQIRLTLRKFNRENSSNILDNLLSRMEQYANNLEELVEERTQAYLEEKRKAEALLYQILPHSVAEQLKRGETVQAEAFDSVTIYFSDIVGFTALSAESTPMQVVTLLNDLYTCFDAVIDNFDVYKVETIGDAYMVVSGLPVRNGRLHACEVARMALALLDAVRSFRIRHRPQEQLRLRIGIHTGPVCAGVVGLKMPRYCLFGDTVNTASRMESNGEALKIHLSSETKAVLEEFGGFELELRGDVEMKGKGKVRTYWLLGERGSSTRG
Summary of the method: (§1)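 Cells receive IBMX (1 mM) assay buffer plus test compound over twelve threefold dilutions starting at 30 μM, and cGMP accumulates for 30 min at 37 °C. Lysates are then incubated one hour at room temperature with d2-labelled cGMP and cryptate-labelled antibody before time-resolved fluorescence reading.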

monkey NPR1 = monkey NPR1 (Macaca fascicularis, UniProt A0A7N9DBT9); test: Cellular cGMP production assay, monkey NPR1 expressing CHO-K1 cells (CisBio HTRF); assay type: cell-based; conditions: for Monkey NPR1 Amax (% of ANP): maximum cGMP production as percentage of the maximum cGMP produced with ANP
Summary of the method: as §1

[1] = cGMP production, monkey NPR1 CHO-K1 cells, 30 min at 37° C., 12-point dose-response from 30 μM, read-out: Monkey NPR1 AC50

Chain of monkey NPR1 (A0A7N9DBT9 entry or part of it): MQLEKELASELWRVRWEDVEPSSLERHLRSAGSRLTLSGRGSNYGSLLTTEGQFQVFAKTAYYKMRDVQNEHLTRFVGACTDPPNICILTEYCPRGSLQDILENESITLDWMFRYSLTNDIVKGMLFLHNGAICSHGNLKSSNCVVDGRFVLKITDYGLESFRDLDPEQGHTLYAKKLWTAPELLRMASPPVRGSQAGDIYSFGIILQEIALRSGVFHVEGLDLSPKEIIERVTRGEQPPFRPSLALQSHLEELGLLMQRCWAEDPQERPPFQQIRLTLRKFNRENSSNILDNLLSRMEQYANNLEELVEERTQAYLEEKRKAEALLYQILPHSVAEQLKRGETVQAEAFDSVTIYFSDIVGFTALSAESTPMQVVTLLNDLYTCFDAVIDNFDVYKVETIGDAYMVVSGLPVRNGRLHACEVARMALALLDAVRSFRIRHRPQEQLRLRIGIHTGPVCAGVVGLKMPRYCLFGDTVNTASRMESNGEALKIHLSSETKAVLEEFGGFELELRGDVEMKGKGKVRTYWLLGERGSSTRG

Compound	AC50 (human NPR1) [µM]	Human NPR1 Amax (% of ANP) (human NPR1)	AC50 (monkey NPR1; [1]) [µM]	Monkey NPR1 Amax (% of ANP) (monkey NPR1; monkey NPR1 CHO-K1 cells)	AC50 (monkey NPR1) [µM]
CC[C@H]([C@H]1CC[C@H](C(=O)O)CC1)N(C)c1nc2c(c(N[C@@H](CN3CCC[C@H](COC)C3)c3cnn(C)c3)n1)C[C@H](c1cccc(F)c1)CC2 [Compound 35, (1R,4r)-4-((R)-1-(((R)-6-(3-fluorophenyl)-4-(((R)-2-((S)-3-(methoxymethyl)piperidin-1-yl)-1-(1-methyl-1H-pyrazol-4-yl)ethyl)amino)-5,6,7,8-tetrahydroquinazolin-2-yl)(methyl)amino)propyl)cyclohexane-1-carboxylic acid]	0.148	92.607 % of ANP	0.127	104.934 % of ANP	
CC[C@@H](Nc1nc2c(c(N[C@@H](CN3C4CCCC3CCC4)c3cnn(C)c3)n1)C[C@H](c1cccc(F)c1)CC2)[C@H]1CC[C@H](C(=O)O)CC1 [Compound 15, (1R,4r)-4-((R)-1-(((R)-4-(((R)-2-((1S,5S)-9-azabicyclo[3.3.1]nonan-9-yl)-1-(1-methyl-1H-pyrazol-4-yl)ethyl)amino)-6-(3-fluorophenyl)-5,6,7,8-tetrahydroquinazolin-2-yl)amino)propyl)cyclohexane-1-carboxylic acid]	0.102	106.001 % of ANP		109.175 % of ANP	0.092
CC[C@H]([C@H]1CC[C@H](C(=O)O)CC1)N(C)c1nc2c(c(N[C@@H](CN3CCC[C@H](C)C3)c3cnn(C)c3)n1)CN(c1cccc(C#N)c1)CC2 [Compound 174, (1R,4r)-4-((R)-1-((6-(3-cyanophenyl)-4-(((R)-1-(1-methyl-1H-pyrazol-4-yl)-2-((S)-3-methylpiperidin-1-yl)ethyl)amino)-5,6,7,8-tetrahydropyrido[4,3-d]pyrimidin-2-yl)(methyl)amino)propyl)cyclohexane-1-carboxylic acid]	0.014	93.788 % of ANP	0.01	97.462 % of ANP	
CC[C@H]([C@H]1CC[C@H](C(=O)O)CC1)N(C)c1nc2c(c(N[C@@H](CN3C4CCC3CC4)c3cnn(C)c3)n1)C[C@](C)(c1ccccc1)CC2 [Compound 70, (1R,4r)-4-((R)-1-(((R)-4-(((R)-2-(7-azabicyclo[2.2.1]heptan-7-yl)-1-(1-methyl-1H-pyrazol-4-yl)ethyl)amino)-6-methyl-6-phenyl-5,6,7,8-tetrahydroquinazolin-2-yl)(methyl)amino)propyl)cyclohexane-1-carboxylic acid]	0.234	97.399 % of ANP		100.673 % of ANP	0.23
CC[C@@H](Nc1nc2c(c(N[C@@H](CN3CCC[C@@H](C)C3)c3cnn(C)c3)n1)C[C@H](c1ccccc1)CC2)[C@H]1CC[C@H](C(=O)O)CC1 [Compound 84, (1R,4r)-4-((R)-1-(((R)-4-(((R)-1-(1-methyl-1H-pyrazol-4-yl)-2-((R)-3-methylpiperidin-1-yl)ethyl)amino)-6-phenyl-5,6,7,8-tetrahydroquinazolin-2-yl)amino)propyl)cyclohexane-1-carboxylic acid]	0.284	100.223 % of ANP	0.191	102.883 % of ANP	
CC[C@H]([C@H]1CC[C@H](C(=O)O)CC1)N(C)c1nc2c(c(N[C@@H](CN3CCCC[C@@H]3CO)c3cnn(CC)c3)n1)C[C@H](c1cccc(F)c1)CC2 [Compound 104, (1R,4r)-4-((R)-1-(((R)-4-(((R)-1-(1-ethyl-1H-pyrazol-4-yl)-2-((R)-2-(hydroxymethyl)piperidin-1-yl)ethyl)amino)-6-(3-fluorophenyl)-5,6,7,8-tetrahydroquinazolin-2-yl)(methyl)amino)propyl)cyclohexane-1-carboxylic acid]	0.396	106.357 % of ANP	0.29	109.908 % of ANP	
CC[C@H]([C@H]1CC[C@H](C(=O)O)CC1)N(C)c1nc2c(c(N[C@@H](CN3CCC[C@H](C)C3)c3cnn(C)c3)n1)C[C@@H](c1ccccc1F)CC2 [Compound 141, (1R,4r)-4-((R)-1-(((S)-6-(2-fluorophenyl)-4-(((R)-1-(1-methyl-1H-pyrazol-4-yl)-2-((S)-3-methylpiperidin-1-yl)ethyl)amino)-5,6,7,8-tetrahydroquinazolin-2-yl)(methyl)amino)propyl)cyclohexane-1-carboxylic acid]	0.888	102.728 % of ANP	0.731	105.798 % of ANP	
CC[C@@H](Nc1nc2c(c(N[C@@H](CN(C)C)c3ccccc3)n1)C[C@H](c1ccccc1)CC2)[C@H]1CC[C@H](C(=O)O)CC1 [Compound 165, (1R,4r)-4-((R)-1-(((R)-4-(((R)-2-(dimethylamino)-1-phenylethyl)amino)-6-phenyl-5,6,7,8-tetrahydroquinazolin-2-yl)amino)propyl)cyclohexane-1-carboxylic acid]	1.81	90.595 % of ANP	1.08	87.861 % of ANP	
CC[C@H]([C@H]1CC[C@H](C(=O)O)CC1)N(C)c1nc2c(c(N[C@@H](CN3CCC[C@H](C)C3)c3ccnn3C)n1)C[C@H](c1cccc(F)c1)CC2 [Compound 161, (1R,4r)-4-((R)-1-(((R)-6-(3-fluorophenyl)-4-(((S)-1-(1-methyl-1H-pyrazol-5-yl)-2-((S)-3-methylpiperidin-1-yl)ethyl)amino)-5,6,7,8-tetrahydroquinazolin-2-yl)(methyl)amino)propyl)cyclohexane-1-carboxylic acid]	1.68	108.479 % of ANP	0.989	97.242 % of ANP	
CC[C@H]([C@H]1CC[C@H](C(=O)O)CC1)N(C)c1nc2c(c(N[C@@H](CN3CCC(C)CC3)c3cnn(C)c3)n1)C[C@H](c1ccccc1)CC2 [Compound 145, (1R,4r)-4-((R)-1-(methyl((R)-4-(((R)-1-(1-methyl-1H-pyrazol-4-yl)-2-(4-methylpiperidin-1-yl)ethyl)amino)-6-phenyl-5,6,7,8-tetrahydroquinazolin-2-yl)amino)propyl)cyclohexane-1-carboxylic acid]	1.05	97.636 % of ANP	0.9	103.150 % of ANP	
CC[C@@H](Nc1nc2c(c(N[C@@H](CN3C4CCCC3CCC4)c3cnn(CC)c3)n1)C[C@H](c1cccc(F)c1)CC2)[C@H]1CC[C@H](C(=O)O)CC1 [Compound 17, (1R,4r)-4-((R)-1-(((R)-4-(((R)-2-((1S,5S)-9-azabicyclo[3.3.1]nonan-9-yl)-1-(1-ethyl-1H-pyrazol-4-yl)ethyl)amino)-6-(3-fluorophenyl)-5,6,7,8-tetrahydroquinazolin-2-yl)amino)propyl)cyclohexane-1-carboxylic acid]	0.105	97.959 % of ANP		99.682 % of ANP	0.068
CC[C@H]([C@H]1CC[C@H](C(=O)O)CC1)N(C)c1nc2c(c(N[C@@H](CN3CCC[C@H](C)C3)c3cnn(C)c3)n1)CN(c1cccc(F)c1)CC2 [Compound 124, (1R,4r)-4-((R)-1-((6-(3-fluorophenyl)-4-(((R)-1-(1-methyl-1H-pyrazol-4-yl)-2-((S)-3-methylpiperidin-1-yl)ethyl)amino)-5,6,7,8-tetrahydropyrido[4,3-d]pyrimidin-2-yl)(methyl)amino)propyl)cyclohexane-1-carboxylic acid]	0.617	106.069 % of ANP	0.406	101.428 % of ANP	
